Measured values published in patent US20110046070A1, “GENE EXPRESSION INHIBITOR SELECTIVE FOR MATRIX METALLOPROTEINASE-9 GENE” (priority 2008, published 2011).

Experiments:
[1] = tested on: human uterine cervix cancer HeLa cells; experiment: Wound-healing migration assay, HeLa; type: cell-based; conditions: 48 hours after the damage, various concentrations
Experimental: A human breast cancer MDA-MB-231 cell strain was used. The cells were cultured at 37° C. in a humid environment containing 5% CO^2 in an RPMI1640 medium (Sigma-Aldrich Corp., St. Louis, Mo., USA) supplemented with 100 μg/ml streptomycin, 100 units/ml penicillin and 10% fetal bovine serum (FBS) (Sigma-Aldrich Corp.). Human uterine cervix cancer HeLa cells were cultured in a Dulbecco's modified Eagle medium (DMEM, Invitrogen Life Technologies, Corp., Carlsbad, Calif.) containing 10% FBS and 2 mM L-glutamine.
To assay cellular migration in the process of wound healing, 3×10^5 cells were inoculated to each well of an 8-well chamber slide, and the cell layer was damaged using a plastic micropipette when the cells reached confluence. The medium and debris were removed by suction, and 100 μl of a fresh medium containing various polyamides was replaced therefor. 48 hours after the damage, the cells were fixed with Diff-Quik solution (SYSMEX INTERNATIONAL REAGENTS CO., LTD., Kobe, Japan), then stained, and photographed using a phase-contrast microscope.

MDA-MB-231 cells = experiment: Invasion assay into matrigel, MDA-MB-231; type: cell-based, human; conditions: 22 hours
Experimental: Cell invasion assay was conducted using a 24-well cell culture BioCoat matrigel invasion chamber (BD Biosciences, Discovery Labware, Bedford, Mass., USA). MDA-MB-231 cells (1×10^3 cells/well) or HeLa cells (1×10^3 cells/well) were suspended in an RPMI1640 or DMEM medium containing 0.1% FBS and added to the upper chamber. An RPMI1640 or DMEM medium containing 5% FBS was added to the lower chamber. Then, the cells were cultured at 37° C. for 22 hours in a 5% CO2 environment. Noninvasive cells remaining on the membrane were wiped off using a cotton swab. Invasion cells were fixed and stained with a Diff-Quik kit. The number of cells invading the membrane was determined in mean±standard deviation from a total of 3 membranes by counting in 10 fields of view per membrane using an optical microscope (200× magnification).
The degradation of constitutive proteins of extracellular matrix is important for the invasion of tumor cells. To evaluate the influence of HMMP9AP1 and HMMP9NFκβ, the MMP9 Py-Im polyamides of the present invention, on the invasion of tumor cells, 5×10^3 MDA-MB-231 cells were incubated with each polyamide at various concentrations for 22 hours. The invasiveness of cells treated with DMSO or each polyamide of the present invention was compared in MDA-MB-231 cells. The DMSO-treated MDA-MB-231 cells remarkably invaded the transparent membrane coated with matrigel. […] In contrast, the cells treated with the HMMP9AP1 or HMMP9NFκβ of the present invention had much lower invasion into the membrane.

[2] = tested on: MMP-9 mRNA in MDA-MB-231 cells; experiment: Real-time RT-PCR assay (mRNA expression assay); type: cell-based, human; conditions: 48 hours, MDA-MB-231, vs DMSO control, normalized to GAPDH
Experimental: MDA-MB-231 cells were treated with each polyamide of the present invention at various concentrations. 48 hours after the treatment, cell fractions were subjected to RNA separation using a TRIzol reagent (Invitrogen Life Technologies, Corp.) according to the manufacturer's manual. RNA was treated with DNase prior to cDNA synthesis. Complementary DNA strands were synthesized by reverse transcription using SuperScript™ First-Strand kit (Invitrogen Life Technologies, Corp.). In real-time RT-PCR (Thermal cycler Dice Real Time system TP800, Takara Bio Inc., Japan), SYBR Premix Ex Taq Kit (Takara Bio Inc.) was used. Primers for HMMP9AP1 (forward, 5′-[…]-3′, SEQ ID NO: 12; reverse 5′-[…]-3′, SEQ ID NO: 13; 236 bp) and internal standard human endogenous glyceraldehyde-3-phosphate dehydrogenase (GADPH; forward, 5′-[…]-3′, SEQ ID NO: 14; reverse, 5′-TGGTGAAGACGCCAGTGGA-3′, SEQ ID NO: 15; 138 bp) were used. Moreover, primers for HMMP9NFKκβ (forward, 5′-[…]-3′, SEQ ID NO: 16; reverse, 5′-[…]-3′, SEQ ID NO: 17; 236 bp) and internal standard human endogenous glyceraldehyde-3-phosphate dehydrogenase (GADPH; forward, 5′-[…]-3′, SEQ ID NO: 18; reverse, 5′-TGGTGAAGACGCCAGTGGA-3′, SEQ ID NO: 19; 138 bp) were used. 25 μl of two-step RT-PCR mixture consists of 12.5 μl of SYBR Premix Ex TAq, 0.5 μl each of forward and reverse primers, 10.5 μl of RNase-free water and 1 μl of template cDNA. The real-time cycle conditions were performed by a reaction system involving 95° C. for 10 seconds, 95° C. for 5 seconds and 60° C. for 30 seconds. The quantification of the MMP-9 gene was normalized by comparison with GAPDH expression.

[3] = tested on: MMP-9 gelatin degradation activity in culture supernatants of MDA-MB-231 cells; experiment: Zymography assay using gelatin as a substrate; type: cell-based, human; conditions: 48 hours, MDA-MB-231 supernatant; for inhibition at 1 µM: read-out: inhibition of gelatin degradation activity compared with the control
Experimental: Proteins collected from culture supernatants of MDA-MB-231 cells were assayed using Novex (registered trademark) zymogram gelatin gel and XCell SureLock™ Mini-cell (Invitrogen Life Technologies, Corp.). The polyamides of the present invention were separately added at various concentrations to 2.5×10^5 cells. After 48-hour incubation, the supernatants were collected. Proteins from each sample were mixed with Novex (registered trademark) Tris-glycine SDS sample buffer (2×) and separated on a 10% zymogram gelatin gel. The gel was washed with a renaturing buffer and a developing buffer according to the manufacturer's manual. Then, the gel was digitized.

HeLa cells = experiment: Growth inhibition assay, HeLa; type: cell-based, human; conditions: 0 μM to 30 μM, 72 hours, WST-8
Experimental: Cell growth inhibition test was conducted using MDA-MB-231 and HeLa cells. The HeLa cells were inoculated at a concentration of 2500 cells/well to a 96-well microtiter plate and incubated for 24 hours in 100 μl of Dulbecco's modified Eagle medium (DMEM) containing 10% fetal bovine serum (Invitrogen). Then, after medium replacement, the cells were cultured for 72 hours in a medium supplemented with 10% fetal bovine serum containing 0 μM to 30 μM (0 μM, 0.3 μM, 1 μM, 3 μM, 10 μM and 30 μM) polyamide HMMP9NFκβ, and 10 μl of live cell counting reagent SF (Nacalai Tesque, Inc.) was added thereto, followed by 2-hour color reaction. Absorbance was measured at 450 nm using an ARVO microtiter plate reader. This experiment was conducted by modified MTT assay (WST-8 ™: Nacalai Tesque, Inc.) using water-soluble formazan.

CC(=O)Nc1cn(C)c(C(=O)Nc2cc(C(=O)NCCC(=O)Nc3cn(C)c(C(=O)Nc4cc(C(=O)Nc5cc(C(=O)NCCCC(=O)Nc6cn(C)c(C(=O)Nc7cn(C)c(C(=O)Nc8cc(C(=O)NCCC(=O)Nc9cn(C)c(C(=O)Nc%10cc(C(=O)NCCC(=O)NCCCN(C)C)n(C)c%10)n9)n(C)c8)n7)n6)n(C)c5)n(C)c4)n3)n(C)c2)n1 [HMMP9AP1]
migration of HeLa cells [1]: inhibited the migrations | decrease in invasion compared to the DMSO-treated control (MDA-MB-231 cells; 0.3 μM): 90% | decrease in invasion compared to the DMSO-treated control (MDA-MB-231 cells; 1 μM): 52% | decrease in invasion compared to the DMSO-treated control (MDA-MB-231 cells; 3 μM): 44% | decrease in invasion compared to the DMSO-treated control (MDA-MB-231 cells; 10 μM): 25.4% | decrease of the expression level of MMP-9 mRNA ([2]; 0.3 μM): 84% | decrease of the expression level of MMP-9 mRNA ([2]; 1 μM): 54% | decrease of the expression level of MMP-9 mRNA ([2]; 3 μM): 38% | decrease of the expression level of MMP-9 mRNA ([2]; 10 μM): 26% | inhibition of gelatin degradation activity (enzymatic activity of MMP-9) ([3]; 10 μM): almost completely | inhibition at 1 µM ([3]; Homo sapiens): 50% | number of live cells (growth inhibition) (HeLa cells): decreased the number of live cells

CC(=O)Nc1cc(C(=O)Nc2cc(C(=O)NCCC(=O)Nc3cc(C(=O)Nc4cc(C(=O)NCCCC(=O)Nc5cn(C)c(C(=O)Nc6cn(C)c(C(=O)NCCC(=O)Nc7cc(C(=O)Nc8cc(C(=O)NCCC(=O)NCCCN(C)C)n(C)c8)n(C)c7)n6)n5)n(C)c4)n(C)c3)n(C)c2)n(C)c1 [HMMP9NFκβ]
migration of HeLa cells [1]: inhibit the migration of HeLa cells in a concentration-dependent manner | decrease in invasion compared to the DMSO-treated control (MDA-MB-231 cells; 0.3 μM): 88% | decrease in invasion compared to the DMSO-treated control (MDA-MB-231 cells; 1 μM): 61% | decrease in invasion compared to the DMSO-treated control (MDA-MB-231 cells; 3 μM): 30% | decrease in invasion compared to the DMSO-treated control (MDA-MB-231 cells; 10 μM): 22% | decrease of the expression level of MMP-9 mRNA ([2]; 0.3 μM): 86% | decrease of the expression level of MMP-9 mRNA ([2]; 1 μM): 68% | decrease of the expression level of MMP-9 mRNA ([2]; 3 μM): 40% | decrease of the expression level of MMP-9 mRNA ([2]; 10 μM): 28% | inhibition at 1 µM ([3]; Homo sapiens): 62% | inhibition at 10 µM ([3]; Homo sapiens, 10 μM, read-out: inhibition of gelatin degradation activity (enzymatic activity of MMP-9)): 82% | number of live cells (growth inhibition) (HeLa cells): decreased the number of live cells in a concentration-dependent manner
